The molecules below were run on IL-6 production induced by lipopolysaccharide (LPS) in human corneal epithelial cells (assay: Evaluation test for GR agonist activity: inhibition of LPS-induced IL-6 production in human corneal epithelial cells (HCE-T)). Conditions: Corneal epithelial cell, 10 μL of 100 μM test compound solution per well, 4 hours incubation, efficacy relative to DEX.
Type: cell-based
Description: In order to evaluate a GR agonist activity of the present compound, the inhibitory effects on the IL-6 production induced by lipopolysaccharide (LPS) in human corneal epithelial cells. IL-6 levels in the conditioned medium were measured using the HTRF human IL-6 Kit (boehringer-Ingelheim, Cat No. 62IL6PEB), and the procedure was carried out according to the protocol attached to the kit. Hereinafter, the specific method will be described.
LPS solution: After LPS was dissolved in phosphate buffer solution (hereinafter referred to as PBS(−)), the resulting solution was diluted with 10% FBS-DMEM/F12 medium, whereby a 1 μg/mL LPS solution was prepared.
After a test compound was dissolved in dimethylsulfoxide (hereinafter referred to as DMSO), the resulting solution was diluted with 10% FBS-DMEM/F12 medium, whereby a 100 μM test compound solution was prepared. A 100 μM DEX solution was prepared by the same method, and the inhibitory ratio of IL-6 production of DEX was evaluated to use for calculating efficacy (% DEX).
Used cell: SV40-immortalized human corneal epithelial cells (HCE-T) (RIKEN)
1) HCE-T cells were harvested, and seeded at 2.0×10^4 cells/0.1 mL/well in a 96-well plate.
2) After incubation overnight, the medium was removed and a 80 μL of new 10% FBS-DMEM/Ham's F12 medium was added into each well.
3) A 10 μL of test compounds solution was added into each well.
4) A 10 μL of LPS solution was added into each well.
5) As a negative control, a 10 μL of 10% FBS-DMEM/Ham's F12 medium was added into each well instead of a test compound solution and a LPS solution.
6) As a positive control, a 10 μL of 10% FBS-DMEM/Ham's F12 medium containing 1% DMSO was added into each well instead of a test compound solution.
7) After 4 hours incubation, supernatants were collected and IL-6 levels in the supernatants were quantitated using the HTRF human IL-6 Kit.
8) The inhibition ratio of IL-6 production (%) was calculated according to the following equation.
The inhibition ratio of IL-6 production (%) was calculated according to the following equation. The inhibition ratio of IL-6 production(%)=100×[1−(IL-6 level in each group−mean value of IL-6 level in negative control)/(mean value of IL-6 level in positive control−mean value of IL-6 level in negative control)](%)
Furthermore, the inhibition ratio of IL-6 production (efficacy (% DEX)) was also calculated according to the following equation. Efficacy(% DEX)=100×{(mean value of IL-6 inhibition in compound-treated group)/(mean value of IL-6 inhibition in DEX-treated group)}(%) (Result and Discussion)

| SMILES | Emax [%] |
| --- | --- |
| COc1cc(OC(=O)c2ccccc2)ccc1-c1ccc2c(c1COC(=O)c1ccc(C)s1)C(C)=CC(C)(C)N2 [Compound 1-142, 6-(4-Benzoyloxy-2-methoxyphenyl)-5-(5-methylthiophen-2-ylcarbonyloxymethyl)-2,2,4-trimethyl-1,2-dihydroquinoline] | 97 |
| COc1cc(OC(=O)c2ccccc2C)ccc1-c1ccc2c(c1COC(=O)c1ccc(C)s1)C(C)=CC(C)(C)N2 [Compound 1-143, 6-[2-Methoxy-4-(2-methylbenzoyloxy)phenyl]-5-(5-methylthiophen-2-ylcarbonyloxymethyl)-2,2,4-trimethyl-1,2-dihydroquinoline] | 96 |
| COc1ccccc1NCc1c(-c2ccc(OC(=O)c3ccccc3)cc2OC)ccc2c1C(C)=CC(C)(C)N2 [Compound 1-92, 6-(4-Benzoyloxy-2-methoxyphenyl)-5-(2-methoxyphenylaminomethyl)-2,2,4-trimethyl-1,2-dihydroquinoline] | 79 |
| COc1ccccc1NCc1c(-c2ccc(OC(=O)c3cccs3)cc2OC)ccc2c1C(C)=CC(C)(C)N2 [Compound 1-104, 5-(2-Methoxyphenylaminomethyl)-6-[2-methoxy-4-(thiophen-2-ylcarbonyloxy)phenyl]-2,2,4-trimethyl-1,2-dihydroquinoline] | 84 |
| COc1ccccc1NCc1c(-c2ccc(OC(=O)c3occc3C)cc2OC)ccc2c1C(C)=CC(C)(C)N2 [Compound 1-114, 6-[2-Methoxy-4-(3-methylfuran-2-ylcarbonyloxy)phenyl]-5-(2-methoxyphenylaminomethyl)-2,2,4-trimethyl-1,2-dihydroquinoline] | 87 |
| COc1cc(OC(=O)c2ccccc2[N+](=O)[O-])ccc1-c1ccc2c(c1COC(=O)c1ccc(C)s1)C(C)=CC(C)(C)N2 [Compound 1-170, 6-[2-Methoxy-4-(2-nitrobenzoyloxy)phenyl]-5-(5-methylthiophen-2-ylcarbonyloxymethyl)-2,2,4-trimethyl-1,2-dihydroquinoline] | 77 |
| COc1cc(OS(=O)(=O)C2CC2)ccc1-c1ccc2c(c1COC(=O)c1ccc(C)s1)C(C)=CC(C)(C)N2 [Compound 4-34, 6-(4-Cyclopropylsulfonyloxy-2-methoxyphenyl)-5-(5-methylthiophen-2-ylcarbonyloxymethyl)-2,2,4-trimethyl-1,2-dihydroquinoline] | 86 |
| COc1ccccc1NCc1c(-c2ccc(OC(=O)c3ccco3)cc2OC)ccc2c1C(C)=CC(C)(C)N2 [Compound 1-3, 6-[4-(Furan-2-ylcarbonyloxy)-2-methoxyphenyl]-5-(2-methoxyphenylaminomethyl)-2,2,4-trimethyl-1,2-dihydroquinoline] | 76 |
| COc1cc(OC(=O)c2cccnc2)ccc1-c1ccc2c(c1COC(=O)c1ccc(Br)s1)C(C)=CC(C)(C)N2 [Compound 1-160, 5-(5-Bromothiophen-2-ylcarbonyloxymethyl)-6-[2-methoxy-4-(pyridin-3-ylcarbonyloxy)phenyl]-2,2,4-trimethyl-1,2-dihydroquinoline] | 88 |
| COc1cc(OS(=O)(=O)C2CC2)ccc1-c1ccc2c(c1COc1cc(F)ccc1C)C(C)=CC(C)(C)N2 [Compound 4-14, 6-(4-Cyclopropylsulfonyloxy-2-methoxyphenyl)-5-(5-fluoro-2-methylphenoxymethyl)-2,2,4-trimethyl-1,2-dihydroquinoline] | 80 |
| COc1cc(OS(=O)(=O)CCC(F)(F)F)ccc1-c1ccc2c(c1COC(=O)c1ccc(C)s1)C(C)=CC(C)(C)N2 [Compound 4-26, 6-[2-Methoxy-4-(3,3,3-trifluoropropylsulfonyl-oxy)phenyl]-5-(5-methylthiophen-2-yl-carbonyloxymethyl)-2,2,4-trimethyl-1,2-dihydroquinoline] | 77 |
| COc1cc(OC(=O)c2ccncc2)ccc1-c1ccc2c(c1COC(=O)c1ccc(C)s1)C(C)=CC(C)(C)N2 [Compound 1-156, 6-[2-Methoxy-4-(pyridin-4-ylcarbonyloxy)phenyl]-5-(5-methylthiophen-2-ylcarbonyloxymethyl)-2,2,4-trimethyl-1,2-dihydroquinoline] | 90 |
